# Results from patent US20120116069A1, “GLUCOSE METABOLISM-IMPROVING AGENT AND GLUCOSE METABOLISM-IMPROVING COMPOSITION” (LION CORPORATION, priority 2009, published 2012).
# Marks after values point to notes of the source that are not given here.
# Test system: cells derived from rat skeletal muscle (L6 cells)
# Assay: Intake of RI-labeled 2-deoxyglucose into differentiated L6 cells
# Format: cell-based
# Conditions: n=4
# Description: Cells derived from rat skeletal muscle (L6 cells, product of Dainippon Pharmaceutical Co., Ltd.) were suspended in 15 mL of DMEM (Dulbecco's modified Eagle medium, product of SIGMA Co.) containing 10% by mass FBS (fetal bovine serum, product of GIBCO Co.) and 1% by mass AB (anti-biotic solution, product of SIGMA Co.). The resultant suspension was dispensed into 75-cm^2 culture flasks and then statically cultured at 37° C. under 5% CO2. After having reached subconfluency (80%), each culture was placed in a 24-well plate (product of SUMITOMO BAKELITE CO., LTD.) at 50,000 cells/well. After having reached confluency, the cells were cultured for three days. Then, the medium was exchanged with MEM (minimal essential medium, product of NACALAI TESQUE, INC.) containing 2% by mass FBS and 1% by mass AB to thereby induce differentiation of the L6 cells. Eight days after the induction of differentiation, a solution of panaxatriol (PT) (product of LKT Laboratories, Inc.) in ethanol was added to the resultant medium so that the concentration of panaxatriol (PT) was 1 ppm or 10 ppm. The PT-free well was used as a control for each of these wells. Then, 30 hours after, the medium of each well was exchanged with MEM containing 2% by mass BSA (bovine serum albumin, product of SIGMA Co.) and panaxatriol (PT) at a concentration of 1 ppm or 10 ppm, to thereby terminate sensitization. Furthermore, 18 hours after, the MEM containing 2% by mass BSA was removed, and a KRH buffer (50 mM HEPES (product of SIGMA Co.), pH 7.4, 137 mM sodium chloride (product of Wako Pure Chemical Industries, Ltd.), 4.8 mM potassium chloride (product of Wako Pure Chemical Industries, Ltd.), 1.85 mM calcium chloride (product of Wako Pure Chemical Industries, Ltd.) and 1.3 mM magnesium sulfate (product of Wako Pure Chemical Industries, Ltd.)) was added to the wells at 30 μL/well. Thereafter, 6 μL of RI-labeled 2-deoxyglucose (2-DG, product of American Radiolabeled Chemicals Co.) (final concentration: 6.5 mM (0.5·Ci)) was added to the wells to perform reaction. Five minutes after the initiation of reaction, the cells were washed four times with an ice-cooled KRH buffer to remove 2-DG that had not been taken into the L6 cells. After removal of the KRH buffer, the cells were lysed with 250 μL of 0.05N sodium hydroxide (product of Wako Pure Chemical Industries, Ltd.) and recovered in a vial. In addition, the wells were washed twice with 200 μL of the KRH buffer and recovered in the vial similarly. Then, 3 mL of liquid scintillation cocktail PICOFLOUR (product of PerkinElmer Co., Ltd.) was added to the vial containing the cells recovered, followed by measuring for radioactivity with a liquid scintillation counter (LSC-5100, product of Aloka Co.). […]
SMILES,"Relative activity (radioactivity of 2-DG taken in, compound-free well = 100) (1 ppm)","Relative activity (radioactivity of 2-DG taken in, compound-free well = 100) (10 ppm)"
"CC1(C)CCC[C@](C)([C@H]2CC[C@]3(C)[C@@H]2[C@H](O)C[C@@H]2[C@@]4(C)CC[C@H](O)C(C)(C)[C@@H]4CC[C@]23C)O1 [PD, panaxadiol]",130*,140**
"CC1(C)CCC[C@](C)([C@H]2CC[C@]3(C)[C@@H]2[C@H](O)C[C@@H]2[C@@]4(C)CC[C@H](O)C(C)(C)[C@@H]4[C@@H](O)C[C@]23C)O1 [PT, panaxatriol]",132*,145**
